Where two headings read alike, the source gives them in different places.
Experiments:
[1] = system: healthy subjects with an increased risk for atherothrombotic cardiovascular events; assay: Primary preventive clinical outcome study; assay type: in vivo, human
Description: The third outcome study investigates the primary preventive effect of Vorinostat in healthy subjects with an increased risk for atherothrombotic cardiovascular events i.e. cigarette smoking, abnormal blood lipid levels, hypertension, diabetes, abdominal obesity, low-grade inflammation and/or atherosclerosis. Subjects are randomized to double-blind oral treatment with 10 mg Vorinostat or placebo daily. The risk of a primary atherothrombotic event is followed annually. The primary composite efficacy endpoint is mortality, or non-fatal myocardial infarction or ischemic stroke. The study is event-driven to a total of 180 events in the placebo group.
The third outcome study investigates the primary preventive effect of VPA in healthy subjects with an increased risk for atherothrombotic cardiovascular events due to low-grade inflammation. The inflammatory activation is clinically defined as an elevated serum level of high-sensitivity C-reactive protein (hs-CRP) >3 mg/L. Subjects are randomized to double-blind oral treatment with 100 mg valproic acid or placebo twice daily. The risk of a primary atherothrombotic event is followed annually. The primary composite efficacy endpoint is mortality, or non-fatal myocardial infarction or ischemic stroke. The study is event-driven to a total of 180 events in the placebo group. In this population the annual event rate is reduced by 30% from 1.5 to 1%.

[2] = system: E-selectin; assay: Regulation of E-selectin expression in endothelial cells; assay type: cell-based; details: endothelial cell gene expression
[3] = system: t-PA mRNA expression in human umbilical vein endothelial cells (HUVECs); assay: In vitro dose response: t-PA mRNA (and protein) expression in HUVEC after 24 h; assay type: cell-based
Description: Human umbilical vein endothelial cells (HUVECs) were prepared by collagenase treatment of fresh umbilical cords (Jaffe, E. A., et al. J Clin Invest 52, 2745-2756 (1973)) obtained from the maternity ward of the Sahlgrenska University hospital, Gotheburg, Sweden. Cells were cultured in EGM-2 medium (Lonza, Basel, Switzerland) and all experiments were performed in passage 1 of subcultivation. Confluent HUVECs were exposed to 10 nM-10 μM of Vorinostat (Selleck Chemicals, Houston, Tex., USA) in complete medium for 24 h. After 24 h, cells and conditioned media were harvested.
(§1) Total RNA was prepared using RNeasy Mini RNA kit (Qiagen, Hilden, Germany) and genomic DNA was removed using RNase-free DNase I set (Qiagen). Levels of t-PA mRNA were analyzed with real-time RT-PCR, performed on an Applied Biosystems 7500 Fast Real-Time PCR System using cDNA and Taqman reagents obtained from Applied Biosystems (Foster City, Calif., USA). Hypoxanthine phosphoribosyl transferase (HPRT, Assay number Hs99999909_m1, Applied Biosystems) was used as endogenous internal standard.
(§2) Endothelial cells in culture are known to constitutively secrete the majority of synthesized t-PA making conditioned media a suitable source for quantification of t-PA protein. Conditioned medium from cell cultures was collected, centrifuged (10 000×g, 10 min, 4° C.) to remove cell debris, transferred to fresh tubes and stored at −70° C. Concentrations of t-PA antigen in conditioned media were determined using the commercially available TriniLize t-PA antigen ELISA (Trinity Biotech, Bray, Ireland) according to manufacturer's protocol.

[4] = system: TNF-alpha suppressed t-PA production in HUVECs; assay: Counter-acting TNF-alpha (0.1 ng/ml) suppression of t-PA in HUVEC; assay type: cell-based, human; details: for concentration completely normalizing TNF-alpha suppressed t-PA production / concentration partly reversing TNF-alpha suppression of t-PA production: TNF-alpha 0.1 ng/ml 48 h, compound last 24 h
Description: Human umbilical vein endothelial cells (HUVECs) were prepared and cultured as described in Example 1. Confluent HUVECs were exposed to low concentrations of TNF-alpha (0.1 ng/ml) (Sigma-Aldrich) for 24 h. Thereafter, medium was replaced by fresh EGM-2 containing TNF-alpha and low concentrations of belinostat (10 nM to 300 nM) and incubated for 24 h. After 24 h, cells and conditioned media were harvested. Total RNA was prepared and RNA and secreted protein quantified as in Example 1.
We have previously shown that proinflammatory cytokines e.g. TNF-alpha and IL-1b suppress t-PA production in endothelial cells. We then investigated if VPA could reverse a TNF-alpha suppressed t-PA response. Human umbilical vein endothelial cells (HUVECs) were prepared by collagenase treatment of fresh umbilical cords (Jaffe, E. A., et al. J Clin Invest 52, 2745-2756 (1973)) obtained from the maternity ward of the Sahlgrenska University hospital, Gothenburg, Sweden. Cells were cultured in EGM-2 medium (Lonza, Basel, Switzerland) and all experiments were performed in passage 1 of subcultivation. Confluent HUVECs were pre-treated with 0.1 ng/ml human recombinant TNF-alpha (Sigma-Aldrich) for 24 hours then exposed to optimal concentrations VPA in complete medium. After incubation with the VPA and TNF-alpha for an additional 24 hours, cells and conditioned media were harvested.
as §1
as §2, with “collected, centrifuged (10,000×g, 10 min,” for “collected, centrifuged (10 000×g, 10 min,”, “according to the manufacturer's protocol.” for “according to manufacturer's protocol.”

[5] = daily oral dose: Vorinostat 10 mg, Belinostat 65 mg, Givinostat 2 mg, Panobinostat 0.5 mg, PCI-24781 2 mg, JNJ-26481585 0.2 mg, Mocetinostat 2 mg, SB939 0.4 mg, CXD101 10 mg
[6] = HUVEC, present-tense Examples 12-18
[7] = hs-CRP >3 mg/L, 100 mg valproic acid orally twice daily

Compound | annual event rate with treatment (reduced from 1.5) [1, 5] [%] | reduction of annual event rate [1, 5] [%] | regulation of E-selectin expression [2] | concentration at which a significant increase of t-PA mRNA levels was seen [3] [nM] | concentration of maximal effect on t-PA expression [3] | increase of t-PA expression at maximal effect [3] | concentration completely normalizing TNF-alpha suppressed t-PA production ([4]; HUVEC) [nM] | concentration partly reversing TNF-alpha suppression of t-PA production ([4]; HUVEC) [nM] | concentrations needed to off-set the inhibition of TNF-alpha on t-PA expression ([4]; TNF-alpha treated endothelium) [µM] | concentration at which a significant increase of t-PA mRNA levels is seen ([3]; present-tense Examples 3-9) [nM] | concentration of maximal effect on t-PA expression ([3]; present-tense Examples 3-9) | increase of t-PA expression at maximal effect ([3]; present-tense Examples 3-9) | concentration completely normalizing TNF-alpha suppressed t-PA production [4, 6] [nM] | concentration partly reversing TNF-alpha suppression of t-PA production [4, 6] [nM] | annual event rate with treatment (reduced from 1.5) [1, 7] [%] | reduction of annual event rate [1, 7] [%] | concentration achieving complete normalization of TNF-alpha suppressed t-PA mRNA ([4]; HUVEC, TNF-alpha 0.1 ng/ml, VPA additional 24 h) [mM] | concentrations needed to reverse the effect of TNF-alpha on t-PA expression ([4]; TNF-suppressed cells)
O=C(/C=C/c1cccc(S(=O)(=O)Nc2ccccc2)c1)NO [Belinostat] | 1 | 30 | almost no effect | 10 | around 3 μM | approximately 10 times | 200 | 50 | 0.05 to 0.2 | – | – | – | – | – | – | – | – | –
Cc1nn(C)cc1CN1CCC(c2ccc(C(=O)Nc3ccccc3N)cc2)CC1 [CXD101] | 1 | 30 | – | – | – | – | – | – | – | 10 | around 3 μM | approximately 10 times | 300 | 10 | – | – | – | –
CCN(CC)Cc1ccc2cc(COC(=O)Nc3ccc(C(=O)NO)cc3)ccc2c1.Cl [Givinostat] | 1 | 30 | strongly suppresses expression | 30 | 0.3 µM | 10 times | – | – | – | 10 | around 0.3 μM | approximately 10 times | 100 | 30 | – | – | – | –
Cn1cc(CNCC2CCN(c3ncc(C(=O)NO)cn3)CC2)c2ccccc21 [JNJ-26481585, N-hydroxy-2-(4-((((1-methyl-1H-indol-3-yl)methyl)amino)methyl)piperidin-1-yl)pyrimidine-5-carboxamide] | 1 | 30 | – | 3 | around 30 nM | approximately 6 times | – | – | – | 1 | around 30 nM | approximately 10 times | 5 | 1 | – | – | – | –
Nc1ccccc1NC(=O)c1ccc(CNc2nccc(-c3cccnc3)n2)cc1 [Mocetinostat] | 1 | 30 | strongly induces expression | 100 | around 3 μM | approximately 15 times | – | – | – | 10 | around 3 μM | approximately 10 times | 300 | 10 | – | – | – | –
CN(C)Cc1c(C(=O)NCCOc2ccc(C(=O)NO)cc2)oc2ccccc12 [PCI-24781, 3-(dimethylaminomethyl)-N-[2-[4-(hydroxycarbamoyl)phenoxy]ethyl]-1-benzofuran-2-carboxamide] | 1 | 30 | – | 100 | around 1 μM | approximately 6 times | – | – | – | 1 | around 0.3 μM | approximately 10 times | 200 | 10 | – | – | – | –
CCCC(CCC)C(=O)O [VPA, valproic acid] | – | – | almost no effect | – | – | – | – | – | – | – | – | – | – | – | 1 | 30 | 0.35 | below 0.35 mM
O=C(CCCCCCC(=O)Nc1ccccc1)NO [Vorinostat] | 1 | 30 | – | 50 | around 3 μM | approximately 7 times | 300 | 50 | – | – | – | – | – | – | – | – | – | –

— US20230094176A1, “COMPOUNDS AND METHODS FOR IMPROVING IMPAIRED ENDOGENOUS FIBRINOLYSIS USING HISTONE DEACETYLASE INHIBITORS” (Cereno Scientific AB, priority 2011, published 2023)
